From US8362031B2, “Lonidamine analogues and treatment of polycystic kidney disease” (University of Kansas, priority 2004, dated 2013)

Key:
[1] = tested on: Salmonella Typhimurium TA 100; test: Ames test for mutagenicity (plate assay, colony count); conditions: 48 hours at 37° C.; for Ames test (+)S9 0.1 mg/pl. / Ames test (+)S9 1 mg/pl. / Ames test (+)S9 10 mg/pl.: (+)S9 mix; for Ames test (−)S9 0.1 mg/pl. / Ames test (−)S9 1 mg/pl. / Ames test (−)S9 10 mg/pl.: (−)S9 mix
[2] = tested on: M-1 Clone 20; human primary cyst epithelial cells (ADPKD cells); test: MTT cell proliferation assay with cAMP (FIGS. 9A-9B); format: cell-based; conditions: 48 hours
Description: Various compounds were tested for their effects on cell proliferation. In the study, the cell types were M-1 Clone 20, which is an immortalized cell line that mimics PKD, and human primary cyst epithelial cells, or ADPKD cells. The compounds were tested at 1 μM to 100 μM concentrations.
M-1 clone 20 (“M1 Clone 20”) cells are a model of PKD-like cells, which were created by stably transfecting parental “normal” M-1 immortalized renal cortical collecting duct cells with the C-terminal cytosolic domain (or C-tail) of mouse polycystin-1 (the protein product of the Pkd1 gene. The overexpressed C-tail acts in a dominant-negative fashion, conferring the PKD phenotype to these cells. Their characterization is described in: Sutters, M., Yamaguchi, T., Maser, R. L., Magenheimer, B. S., St. John, P. L., Abrahamson, D. R., Grantham, J. J. and Calvet, J. P. (2001) Polycystin-1 transforms the cAMP growth-responsive phenotype of M-1 cells. Kidney Int. 60, 484-494.
FIGS. 9A-9B include graphs that show cells grown in the vehicle (i.e. DMSO at two different volumes of 1 uL and 5 uL respectively), cAMP only, and then under the treatment drugs, all of which also had cAMP in them. The comparison drug used was 10 uM of gamendazole. […] Absorbance is a measure of cell number.
The comparison drug used was 10 uM Gamendazole. The MTT cell proliferation assay was carried out to assess cell number—cell proliferation is essentially cell number. […] Thus, absorbance is a measure of cell number, or cell proliferation. The reference bar is the third bar from the left (cAMP)—the degree of inhibition should be compared to that bar.

S. typhimurium TA100 = test: Colormetric Ames Test Procedure; format: cell-based; conditions: at the concentration given per compound (1.39-360.1 μM), 5 days at 37° C.
Description: The following procedures were performed aseptically. First, the day before the assay, as late as possible in the day, the vial labeled “G” Nutrient Broth was dispensed into the vial labeled S. typhimurium TA100 (lyophilized). The mixture was incubated over night at 37° C. for about 16-18 hours.
In appropriate vial, about 50 mg of the test compound was weighed out. About 1 mL of DMSO was added, and the mixture was filter sterilized with 25 mm syringe filter into a sterile tube. The concentration of DMSO was noted.
In a sterile 50 mL tube, about 15 mL of sterile Davis Mingioli Salt (see Davis & Mingioli, Aromatic biosynthesis, VII. Accumulation of two derivatives of shikimic acid by bacterial mutants, J. Bacteriol. 1953. August; 66(2): 129-36) was pipetted. This salt solution (Muta Component “A”) was comprised of (1) Milli-Q, 600 mL; (2) dipotassium phosphate, anhyd., 38.5 g; (3) monopotassium phosphate, anhyd. 11.0 g; (4) ammonium sulfate, 5.5 g; (5) trisodium citrate, 1.375 g; and (6) magnesium sulfate, 0.55 g. Appropriate volume of Milli-Q water was added to bring total volume to 1 L. Each component was dissolved one at a time in the above order. The solution was filtered through a 0.22 μm filter to remove sediment at a pH of about 7.3.
To the salt solution, small amounts of DMSO diluted compound was added, not to exceed 500 μl of DMSO. For example, about 100 μl aliquots of the DMSO diluted compound was added until the highest concentration is reached with compound still in solution. […] When the highest concentration of compound was determined, an appropriate volume of sterile Davis Mingioli salts was added to bring the total volume of solution to 17.5 mL. The concentration of compound and DMSO in the test solution was then noted.
The components were then mixed in a 50 mL sterile tube labeled Reaction Mixture as follows: 21.62 mL of A+4.75 ml of B (D-glucose, 40% w/v)+2.38 mL of C (bromocresol purple, 5 mg/ml)+1.19 ml of D (D-biotin, 0.1 mg/ml)+0.060 ml (60 μl) of E (L-histidine, 0.1 mg/ml). The vial was vortexed and then set aside.
The S9 Mixture was prepared by reconstituting the S9 enzymes with 2.1 mL of sterile water. This was labeled “S9F.” In a 50 mL tube labeled S9 Mixture, the following were mixed together (all available from EBIP): 0.4 mL of S9A (MgCl2, 0.4 M and KCl, 1.65 M)+0.09 mL of S9B (glucose-6-phosphate, 1.0 M)+0.81 mL of S9C (nicotine amide di-nucleotide phosphate, 0.1 M)+9.98 mL of S9D (phosphate buffer, pH 7.4)+6.72 mL of S9E (sterile distilled water)+2 mL of S9F (Rate liver extract). The vial was vortexed and then set aside.
Sterile tubes were labeled as follows: Blank, Background I, Background II, Standard Mutagen, Compound 1 (−), Compound 1 (S9+), Compound 2 (−), Compound 2 (S9+), Compound 3 (−), Compound 3 (S9+). Next, about 2.5 mL of the reaction mix was added to each tube. Then, about 2 mL of the S9 mix was added to the Background II and the S9+ compounds. Next, to each of the compound vials, about 8 mL of the prepared compounds was added. The concentration of the compound in the final solution was noted. Then, about 100 μl of the standard mutagen was added to the Standard mutagen vial. (NaN3 for non S9 activation and 2-aminoanthracene with S9 activation). The appropriate volume of sterile water was next added for a final volume of 17.5 mL. Then, about 5 μl of bacteria was added to each tube except the Blank. Each vial was vortexed and poured into a sterile multi-channel pipette boat, and pipette 200 μl per well into the 96 well plate with a multi channel pipetter. The plates were labeled, covered, placed in zip lock bag, and then incubated for 5 days at 37° C.
On day five of the incubation, the plates were removed from the incubator and placed in a laminar flow hood. The Blank was analyzed first. If there were any wells that were yellow, the test was considered contaminated and the results invalid. […]

Male Long Evans rats = test: In vivo antispermatogenic testing in Long Evans rats; conditions: for Mortality (25 mg/kg) / Response 25 mg/kg: 25 mg/kg single i.p. injection; for Response 25 mg/kg / Response 200 mg/kg: animals responding out of animals surviving, five days following injection; for Mortality (200 mg/kg) / Response 200 mg/kg: 200 mg/kg single i.p. injection

Structure (SMILES) | Ames test (+)S9 0.1 mg/pl. [1] | Ames test (+)S9 1 mg/pl. [1] | Ames test (+)S9 10 mg/pl. [1] | Ames test (−)S9 0.1 mg/pl. [1] | Ames test (−)S9 1 mg/pl. [1] | Ames test (−)S9 10 mg/pl. [1] | Inhibition of cell proliferation (MTT absorbance) ([2]; 25 uM) | Colormetric Ames test, with S9 (S. typhimurium TA100) | Colormetric Ames test, without S9 (S. typhimurium TA100) | Mortality (25 mg/kg) (Male Long Evans rats) | Response 25 mg/kg (Male Long Evans rats) | Mortality (200 mg/kg) (Male Long Evans rats) | Response 200 mg/kg (Male Long Evans rats) | Inhibition of cell proliferation (MTT absorbance) ([2]; 10 uM)
NNC(=O)c1nn(Cc2ccc(F)cc2F)c2cc(Cl)ccc12 [JWS-1-282, 1-(2,4-difluorobenzyl)-6-chloro-1H-indazole-3-carboxylic acid hydrazide] | Pass | Pass | Fail | Pass | Pass | Pass | quite effective in inhibiting cell proliferation |  |  |  |  |  |  | 
NNC(=O)c1nn(Cc2ccc(F)cc2Cl)c2cc(Cl)ccc12 [JWS-2-22, 1-(2-chloro, 4-fluorobenzyl)-6-chloro-1H-indazole-3-carboxylic acid hydrazide] | Pass | Pass | Pass | Pass | Pass | Pass | quite effective in inhibiting cell proliferation |  |  |  |  |  |  | 
NNC(=O)c1nn(Cc2ccc(Cl)cc2Cl)c2cc(OC(F)(F)F)ccc12 [JWS-2-104, 1-(2,4-dichlorobenzyl)-6-trifluoromethoxy-1H-indazole-3-carboxylic acid hydrazide] |  |  |  |  |  |  |  | Pass* | Pass* |  |  |  |  | 
COC(=O)/C=C/c1nn(Cc2ccc(Cl)cc2Cl)c2cc(OC(F)(F)F)ccc12 [JWS-2-110, 3-[1-(2,4-dichlorobenzyl)-6-trifluoromethoxy-1H-indazol-3-yl]acrylic acid methyl ester] |  |  |  |  |  |  |  | Pass* | Pass* |  |  |  |  | 
O=C(O)/C=C/c1nn(Cc2ccc(Cl)cc2Cl)c2cc(OC(F)(F)F)ccc12 [JWS-2-112, 3-[1-(2,4-dichlorobenzyl)-6-trifluoromethoxy-1H-indazol-3-yl]acrylic acid] |  |  |  |  |  |  |  | Pass* | Pass* |  |  |  |  | 
COC(=O)c1nn(Cc2ccc(Cl)cc2Cl)c2cc(OC)ccc12 [JWS-2-120, 1-(2,4-dichlorobenzyl)-6-methoxy-1H-indazole-3-carboxylic acid methyl ester] |  |  |  |  |  |  |  | Pass* | Pass* |  |  |  |  | 
COc1ccc2c(C(=O)O)nn(Cc3ccc(Cl)cc3Cl)c2c1 [JWS-2-122, 1-(2,4-dichlorobenzyl)-6-methoxy-1H-indazole-3-carboxylic acid] |  |  |  |  |  |  |  | Pass* | Pass* |  |  |  |  | 
COc1ccc2c(/C=C/C(=O)O)nn(Cc3ccc(Cl)cc3Cl)c2c1 [JWS-2-132, 3-[1-(2,4-dichlorobenzyl)-6-methoxy-1H-indazol-3-yl]acrylic acid] |  |  |  |  |  |  |  | Pass* | Pass* |  |  |  |  | 
Cc1ccc2c(C(=O)O)nn(Cc3ccc(Cl)cc3Cl)c2c1 [TH-2-178, 1-(2,4-dichlorobenzyl)-6-methyl-1H-indazole-3-carboxylic acid] | Pass | Pass | Pass | Pass | Pass | Pass | more effective in inhibition of cell proliferation at 25 uM compared to 10 uM |  |  | 0/5 | 0/5 | 0/5 | 4/5 | 
Cc1ccc2c(C(=O)NN)nn(Cc3ccc(Cl)cc3Cl)c2c1 [TH-2-179, 1-(2,4-dichlorobenzyl)-6-methyl-1H-indazole-3-carboxylic acid hydrazide] | Pass | Pass | Pass | Pass | Pass | Pass | more effective in inhibition of cell proliferation at 25 uM compared to 10 uM |  |  | 0/5 | 2/5 | 0/5 | 5/5 | more effective at 10 uM
Cc1ccc2c(/C=C/C(=O)O)nn(Cc3ccc(Cl)cc3Cl)c2c1 [TH-2-192, 3-[1-(2,4-dichlorobenzyl)-6-methyl-1H-indazol-3-yl]acrylic acid] | Pass | Pass | Pass | Pass | Pass | Pass | more effective in inhibition of cell proliferation at 25 uM compared to 10 uM |  |  | 0/5 | 0/5 | 4/5 | 0/4 | 
